The text below walks through data of PubChem BioAssay (NCI).

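The compound was tested at five concentrations on cells cultured in 96-well plates, with a 48-hour exposure period. TGI is the concentration that stops growth completely.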

One assay has as its system RPMI-8226 leukemia. In words: growth of human tumour cells (NCI), 48 h.
Take `CCN1C(=O)c2cc(OC)c(OC)cc2C(=O)C12OC(=O)c1cc3c(cc12)OCO3` (stereo unspecified): the TGI was over 100 µM.
As to `O=C1CCCN1C(=O)CS(=O)(=O)c1ccccc1`, the TGI is over 100 µM.
With `Cc1cc(C)c(-n2[nH]c(=O)n(C)c2=O)c(C)c1`, the TGI was over 100 µM.
Regarding `CC1=NC(=Cc2cccc(Cl)c2)C(=O)N1n1c(-c2ccccc2)nc2ccccc2c1=O`, the TGI was over 100 µM.
Still for that read-out and setting: the same measure for `CO/C(=N\N=C\c1ccc(OC)c(OC)c1)c1ccncc1`: over 10 µM; for `COC1=CC(=O)C2=C(C1=O)[C@H]1CC[C@]3(C)[C@@H](O)CC[C@H]3[C@@H]1CC2`: 44.4 µM.

The test system of another assay is SK-MEL-2 melanoma. In words: growth of human tumour cells (NCI), 48 h.
In turn, `COCc1nc(N)nc(N2N=C(C)CC2(C)C)n1` registered a TGI of over 100 µM.
Compound `Cc1ccccc1-n1c(=O)c2ncn(C3CCCO3)c2n(-c2ccccc2C)c1=S` (stereo unspecified) displayed a TGI of over 100 µM.
The compound `CC1(/C=C/CCSc2ccccc2)CC(=O)C2CC1C2(C)C` (stereo unspecified) registered a TGI of over 55.9 µM.
`CS(=O)(=O)OCC1CN(S(C)(=O)=O)c2cc(O)ccc21` (stereo unspecified) gave a TGI of 6.88 µM.
As for `O=c1[nH]cc(-c2c[nH]c3ccccc23)nc1-c1c[nH]c2ccccc12`, the TGI was determined as 34.2 µM.
Same read-out and setting: under `CC(=O)Nc1ccc(C(O)/C(=N/N)c2nc3ccc(Cl)cc3[nH]c2=O)cc1` (stereo unspecified) stands over 100 µM.
The compound `Nc1n[n+](CC(=O)c2ccccc2)c2sc(-c3ccccc3)nn12` yielded a TGI of over 100 µM.
As to `CC1=NN(C(=O)c2ccncc2)C(=O)C1`, the TGI is over 100 µM.
Consider `CCN1C(=O)c2cc(OC)c(OC)cc2C(=O)C12OC(=O)c1cc3c(cc12)OCO3` (stereo unspecified), for which the TGI was found to be 49.9 µM.
For `O=C1CCCN1C(=O)CS(=O)(=O)c1ccccc1`, the TGI was over 100 µM.
With `Cc1cc(C)c(-n2[nH]c(=O)n(C)c2=O)c(C)c1`, the TGI was over 100 µM.
Still for that read-out and setting: under `COC1=CC(=O)C2=C(C1=O)[C@H]1CC[C@]3(C)[C@@H](O)CC[C@H]3[C@@H]1CC2` stands 26.8 µM; under `CCC(CCCN)Nc1cc(OC)cc2c(C)ccnc12` (stereo unspecified), 41.5 µM.
Consider `CC(C)(C)OC(=O)N/N=C(/N)Cc1ccc(Cl)cc1`, for which the TGI was over 100 µM.

A further assay relates to SK-MEL-28 melanoma. In words: growth of human tumour cells (NCI), 48 h.
Consider `COCc1nc(N)nc(N2N=C(C)CC2(C)C)n1`, for which the TGI is over 100 µM.
With `CC1(/C=C/CCSc2ccccc2)CC(=O)C2CC1C2(C)C` (stereo unspecified), the TGI was over 100 µM.
As to `C/C(=N\Nc1ccc([N+](=O)[O-])cc1[N+](=O)[O-])c1sc(-n2nc(-c3ccccc3)cc2-c2ccccc2)nc1C`, the TGI was over 100 µM.
On the same count and under the same terms, under `CS(=O)(=O)OCC1CN(S(C)(=O)=O)c2cc(O)ccc21` (stereo unspecified) stands 11.6 µM.
The compound `O=c1[nH]cc(-c2c[nH]c3ccccc23)nc1-c1c[nH]c2ccccc12` displayed a TGI of 31.7 µM.
Compound `CC(=O)Nc1ccc(C(O)/C(=N/N)c2nc3ccc(Cl)cc3[nH]c2=O)cc1` (stereo unspecified) registered a TGI of over 100 µM.
On the same count and under the same terms, the same measure for `Nc1n[n+](CC(=O)c2ccccc2)c2sc(-c3ccccc3)nn12`: over 100 µM; for `CC1=NN(C(=O)c2ccncc2)C(=O)C1`: over 100 µM; for `CCN1C(=O)c2cc(OC)c(OC)cc2C(=O)C12OC(=O)c1cc3c(cc12)OCO3` (stereo unspecified): over 100 µM.
Turning to `O=C1CCCN1C(=O)CS(=O)(=O)c1ccccc1`, the TGI was over 100 µM.
Regarding `Cc1cc(C)c(-n2[nH]c(=O)n(C)c2=O)c(C)c1`, the TGI is over 100 µM.
`COC1=CC(=O)C2=C(C1=O)[C@H]1CC[C@]3(C)[C@@H](O)CC[C@H]3[C@@H]1CC2`: the TGI came to 38.3 µM.
Compound `CCC(CCCN)Nc1cc(OC)cc2c(C)ccnc12` (stereo unspecified) yielded a TGI of 30.6 µM.
`CC(C)(C)OC(=O)N/N=C(/N)Cc1ccc(Cl)cc1` displayed a TGI of over 100 µM.

The subject of the next assay is SNB-19 CNS. In words: growth of human tumour cells (NCI), 48 h.
`COCc1nc(N)nc(N2N=C(C)CC2(C)C)n1` gave a TGI of over 100 µM.
Regarding `Cc1ccccc1-n1c(=O)c2ncn(C3CCCO3)c2n(-c2ccccc2C)c1=S` (stereo unspecified), the TGI was over 100 µM.
As for `CC1(/C=C/CCSc2ccccc2)CC(=O)C2CC1C2(C)C` (stereo unspecified), the TGI is over 100 µM.
`C/C(=N\Nc1ccc([N+](=O)[O-])cc1[N+](=O)[O-])c1sc(-n2nc(-c3ccccc3)cc2-c2ccccc2)nc1C` returned a TGI of over 100 µM.
For `O=c1[nH]cc(-c2c[nH]c3ccccc23)nc1-c1c[nH]c2ccccc12`, the TGI was found to be 34.6 µM.
For `CC(=O)Nc1ccc(C(O)/C(=N/N)c2nc3ccc(Cl)cc3[nH]c2=O)cc1` (stereo unspecified), the TGI was over 100 µM.
Still for that read-out and setting: under `Nc1n[n+](CC(=O)c2ccccc2)c2sc(-c3ccccc3)nn12` stands over 100 µM.
In turn, `CC1=NN(C(=O)c2ccncc2)C(=O)C1` returned a TGI of over 100 µM.
`CCN1C(=O)c2cc(OC)c(OC)cc2C(=O)C12OC(=O)c1cc3c(cc12)OCO3` (stereo unspecified) showed a TGI of over 100 µM.
With `O=C1CCCN1C(=O)CS(=O)(=O)c1ccccc1`, the TGI is over 100 µM.
As for `Cc1cc(C)c(-n2[nH]c(=O)n(C)c2=O)c(C)c1`, the TGI is over 100 µM.
Same read-out and setting: the same measure for `CC1=NC(=Cc2cccc(Cl)c2)C(=O)N1n1c(-c2ccccc2)nc2ccccc2c1=O`: over 100 µM.
`COC1=CC(=O)C2=C(C1=O)[C@H]1CC[C@]3(C)[C@@H](O)CC[C@H]3[C@@H]1CC2`: the TGI was found to be 73.2 µM.
Turning to `CCC(CCCN)Nc1cc(OC)cc2c(C)ccnc12` (stereo unspecified), the TGI turned out to be 27.9 µM.
`CC(C)(C)OC(=O)N/N=C(/N)Cc1ccc(Cl)cc1` registered a TGI of over 100 µM.

Another assay relates to TK-10 renal. In words: growth of human tumour cells (NCI), 48 h.
For the compound `COCc1nc(N)nc(N2N=C(C)CC2(C)C)n1`, the TGI is over 100 µM.
The compound `Cc1ccccc1-n1c(=O)c2ncn(C3CCCO3)c2n(-c2ccccc2C)c1=S` (stereo unspecified) registered a TGI of over 100 µM.
`CC1(/C=C/CCSc2ccccc2)CC(=O)C2CC1C2(C)C` (stereo unspecified) registered a TGI of over 70.1 µM.
Turning to `C/C(=N\Nc1ccc([N+](=O)[O-])cc1[N+](=O)[O-])c1sc(-n2nc(-c3ccccc3)cc2-c2ccccc2)nc1C`, the TGI was over 100 µM.
With `CS(=O)(=O)OCC1CN(S(C)(=O)=O)c2cc(O)ccc21` (stereo unspecified), the TGI stood at 6.62 µM.
`O=c1[nH]cc(-c2c[nH]c3ccccc23)nc1-c1c[nH]c2ccccc12` registered a TGI of 30.5 µM.
The compound `CC(=O)Nc1ccc(C(O)/C(=N/N)c2nc3ccc(Cl)cc3[nH]c2=O)cc1` (stereo unspecified) registered a TGI of over 100 µM.
Compound `Nc1n[n+](CC(=O)c2ccccc2)c2sc(-c3ccccc3)nn12` registered a TGI of over 100 µM.
The same measure, in the same setting: the same measure for `CC1=NN(C(=O)c2ccncc2)C(=O)C1`: over 100 µM; for `CCN1C(=O)c2cc(OC)c(OC)cc2C(=O)C12OC(=O)c1cc3c(cc12)OCO3` (stereo unspecified): over 100 µM.
For the compound `O=C1CCCN1C(=O)CS(=O)(=O)c1ccccc1`, the TGI is over 100 µM.
As to `Cc1cc(C)c(-n2[nH]c(=O)n(C)c2=O)c(C)c1`, the TGI is over 100 µM.
The compound `CC1=NC(=Cc2cccc(Cl)c2)C(=O)N1n1c(-c2ccccc2)nc2ccccc2c1=O` yielded a TGI of over 100 µM.
Compound `CO/C(=N\N=C\c1ccc(OC)c(OC)c1)c1ccncc1` displayed a TGI of over 10 µM.
Turning to `COC1=CC(=O)C2=C(C1=O)[C@H]1CC[C@]3(C)[C@@H](O)CC[C@H]3[C@@H]1CC2`, the TGI came to 63.8 µM.
The compound `CCC(CCCN)Nc1cc(OC)cc2c(C)ccnc12` (stereo unspecified) registered a TGI of 31.7 µM.
Same read-out and setting: the same measure for `CC(C)(C)OC(=O)N/N=C(/N)Cc1ccc(Cl)cc1`: over 100 µM.
